Read-outs that look alike come from different tables or passages of the source.
Legend:
[1] = system: A. fumigatus strain dsRed; format: in vivo, Aspergillus fumigatus; details: C57BL/6 mice
Protocol: Aspergillus and Fusarium strains were cultured as described above for 2-3 days, and fresh conidia were disrupted with a bacterial L-loop, harvested in 5 ml PBS, and filtered through sterile PBS soaked cotton gauze in a 10 ml syringe to obtain pure conidial suspensions. Conidia were quantified using a hemocytometer and adjusted in PBS to a final stock solution of 15-20,000 conidia/μl. Mice were anaesthetized with 1.25% 2,2,2-tri-bromoethanol in PBS. The corneal epithelium was abraded using a 30-gauge needle, through which a 2 μl injection containing conidia was released into the corneal stroma using a 33-gauge Hamilton syringe. Mice were examined daily under a stereomicroscope for corneal opacification, and quantified by image analysis using Metamorph software as described. At each time point, animals were euthanized by CO2 asphyxiation, and eyes were either placed in 10% formalin and embedded in paraffin, sectioned at 5 μm intervals and stained with periodic acid schiff and hematoxylin (PASH), or were placed in 1 ml of sterile PBS, homogenized and colony forming units (CFU) were quantified by manual count.
For topical drug delivery, compounds were suspended in a commercial eye drop formulation (Alcon laboratories) or in PBS and 8 μl applied topically at 0 h and 6 h post-infection. Lactoferrin (1.25 mg/ml), deferiprone (10 mM), deferroxamine (10 mM), and simvastatin (4 mM) were purchased from Sigma Aldrich (St. Louis, Mo.). BEC (28 mM) was obtained from Cayman chemicals (Ann Arbor, Mich.). E. coli-expressed recombinant human lipocalin-1 was purified as described previously and applied topically at 2 mg/ml. Iron-dextran and deferroxamine were both purchased from Sigma and administered systemically to mice via daily I.P. injections of 5 mg starting at day −2 until mice were euthanized. All animals were bred under specific pathogen-free conditions and maintained according to institutional guidelines.
Growth of the RFP expressing A. fumigatus strain in the cornea was detected using fluorescent microscopy and quantified by Metamorph image analysis. For assessment of fungal viability, whole eyes were homogenized under sterile conditions in 1 ml PBS, using the Mixer Mill MM300 (Retsch) at 33 Hz for 4 min. Subsequently, 100 μl aliquots were plated onto bacteriologic-grade sabouraud dextrose agar plates, incubated for 24 h at 37° C. (Aspergillus) or at 30° C. (Fusarium and Alternaria), and the number of CFUs was determined by direct counting.

[2] = system: A. fumigatus; assay: In vitro human neutrophil:hyphae growth inhibition assay (calcofluor white fluorometry); format: cell-based, Aspergillus fumigatus; details: for growth of A. fumigatus: incubation in media for 16 h
Protocol: (§1) FIGS. 8(A-G) illustrate a schematic drawing, images, and graphs showing the effect of topical simvastatin and deriprone on fungal infection. A. Statin targeting of fungal HMG-CoA reductase in siderophore biosynthesis. B, C. Effect of statins and iron chelators on growth of A. fumigatus and F. oxysporum in vitro. B. Simvastatin, lovastatin, deferiprone, or deferroxamine were added to growing cultures of A. fumigatus or C. F. oxysporum for 16 h, and hyphal growth was quantified by calcofluor white. D. Growth of A. fumigatus incubated with these compounds in the absence (black bars) or presence (gray bars) of human neutrophils by calcofluor white quantification (data are mean+/−SEM of five replicate wells) E. C57BL/6 mice were infected with A. fumigatus and at 0 and 6 h post-infection 13.4 μg of simvastatin (Sv), deferiprone (11.1 μg), deferroxamine (52.5 μg), Sv+ deferiprone, or Sv+ deferroxamine was applied topically to infected corneas and eyes were imaged at 24 h post-infection. F. Metamorph image analysis was used to quantify fungal dsRed expression and G. eyes were homogenized for CFU analysis. B-D: data are mean+/−SEM of five replicate wells; F, G: data points represent individual corneas.
Human neutrophils were isolated from normal, healthy donors using Ficoll-Paque Plus (GE) density centrifugation as described. Isolated conidia from each A. fumigatus mutant were cultured in 200 μl SDA media (12,500/well) in black-wall 96 well plates with an optically clear bottom (CoStar 3720) until early germ tubes were observed (4-6 h). Wells were washed twice with sterile ddH2O and incubated 16 h with either RPMI media (+ Control), PBS (− Control), or a sublethal dose of human peripheral blood neutrophils in RPMI (0.5−1*10^5/well). At 16 h post-exposure, plates were washed once and stained with 50 μl calcofluor white stain (Binds chitin; Fluka 18909) for 5 min in the dark. Subsequently, plates were washed three times with ddH2O and quantified by fluorometry (360/440 nm; Synergy HT; Biotek).
HMG CoA reductase is required for mevalonate production and can be targeted by statins resulting in decreased siderophore biosynthesis (FIG. 8A). To determine the effect of blocking this pathway on fungal growth, A. fumigatus and Fusarium oxysporum were incubated in media with simvastatin and lovastatin, or with the iron chelators, deferiprone and deferroxamine.

[3] = system: F. oxysporum; assay: In vitro hyphal growth of F. oxysporum with statins and iron chelators (calcofluor white); format: cell-based, Fusarium oxysporum; details: incubation in media for 16 h; b217 says results similar to A. fumigatus (less growth with statins and deferiprone, not deferroxamine)
Protocol: as §1, with “B-D: data are mean+/−SEM of five replicate wells; F, G: data points represent individual corneas.” left out
Human neutrophils were isolated from normal, healthy donors using Ficoll-Paque Plus (GE) density centrifugation as described. […] Subsequently, plates were washed three times with ddH2O and quantified by fluorometry (360/440 nm; Synergy HT; Biotek). […]

[4] = plus human neutrophils, vs neutrophils alone
[5] = topical 16 μg/8 μl at 0 h and 6 h after infection, vs infected mice without exogenous Lcn-1
[6] = topical 10.4 μg in 8 μl at 0 h and 6 h post-infection, 24 h post-infection, vs vehicle

Molecule: Cc1c(O)c(=O)ccn1C [deferiprone, 1,2 dimethyl-3-hydroxypyrid-4-1]
- fungal dsRed emission ([1]; topical at 0 and 6 h post-infection (simvastatin 13.4 μg, deferiprone 11.1 μg, deferroxamine 52.5 μg), 24 h, vs vehicle-treated mice): significantly less
- growth of A. fumigatus ([2]; no neutrophils): significantly less growth
- A. fumigatus growth in the presence of human neutrophils [2, 4]: inhibited

Molecule: CC[C@H](C)C(=O)O[C@H]1C[C@@H](C)C=C2C=C[C@H](C)[C@H](CC[C@@H]3C[C@@H](O)CC(=O)O3)[C@H]21 [lovastatin]
- growth of Fusarium oxysporum [3]: significantly less fungal cell growth
- growth of A. fumigatus ([2]; no neutrophils): significantly less growth
- A. fumigatus growth in the presence of human neutrophils [2, 4]: inhibited

Molecule: N=C(NO)NCC[C@H](N)C(=O)O [nNOHA, N^ω-Hydroxy-nor-L-arginine]
- fungal growth ([2]; 100 μM, no neutrophils, vs RPMI alone): significantly lower than in RPMI alone
- fungal growth when incubated with neutrophils ([2]; plus human neutrophils, vs neutrophils alone, concentration not given): not significantly different from neutrophils alone

Molecule: Lcn-1: E. coli-expressed recombinant human lipocalin-1, siderophore binding protein
- CFU [1, 5]: significantly less
- fungal dsRed [1, 5]: significantly less
- A. fumigatus growth in the presence of neutrophils ([2]; 4 μg/ml plus human neutrophils, vs neutrophils alone or Lcn-1 alone): significantly less than in the presence of neutrophils alone or with Lcn-1 alone
- fungal growth ([2]; 4 μg/ml, absence of neutrophils): significantly less
- fungal growth ([2]; 40 μg/ml, absence of neutrophils): significantly less

Molecule: lactoferrin
- CFU [1, 6]: significantly less
- fungal mass (dsRed) [1, 6]: significantly less

From US11229685B2, “Fungal iron acquisition inhibitors and uses thereof” (priority 2013, dated 2022)
